pEC50, pKi: −log10 of the molar value. The source made the active and inactive calls. The rule behind the calls is not given here. Bridge positions count the residues as written; N and C are the ends. Square brackets hold non-standard residues; d marks the D form. Peptide text beside a SMILES is read from it. AllylGly = C=CC[C@H](N)C(=O)O; Nle = CCCC[C@H](N)C(=O)O; Ava = NCCCCC(=O)O
What was measured:
[1] = target: T1, Apelin receptor (Homo sapiens) (UniProt P35414); experiment: Agonist activity at human APJ expressed in HEK293 cells assessed as maximal efficacy for dissociation of G alphai1 from the G beta gamma subunit by BRET-based G protein dissociation assay relative to control; format: functional, cell-based; settings: filed as agonist
T1 sequence (whole entry): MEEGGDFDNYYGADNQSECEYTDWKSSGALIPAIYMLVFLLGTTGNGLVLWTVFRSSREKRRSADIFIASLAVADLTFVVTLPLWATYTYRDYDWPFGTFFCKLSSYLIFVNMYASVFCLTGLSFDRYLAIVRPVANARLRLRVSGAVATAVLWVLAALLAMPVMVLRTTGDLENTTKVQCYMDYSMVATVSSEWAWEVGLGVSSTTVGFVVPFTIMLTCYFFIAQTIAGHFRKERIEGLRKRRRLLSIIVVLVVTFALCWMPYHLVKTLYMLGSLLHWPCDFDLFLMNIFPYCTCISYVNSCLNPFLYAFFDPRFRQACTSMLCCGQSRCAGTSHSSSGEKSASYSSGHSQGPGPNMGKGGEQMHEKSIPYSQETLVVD

[2] = target: T1, Apelin receptor (Homo sapiens); experiment: Agonist activity at human APJ expressed in HEK293 cell membrane assessed as maximal efficacy for recruitment of beta-arrestin2 to receptor by BRET-based beta-arrestin2 assay relative to control; format: functional; settings: filed as agonist
[3] = target: T1, Apelin receptor (Homo sapiens); experiment: Agonist activity at human APJ expressed in HEK293 cell membrane assessed as maximal efficacy for recruitment of PDZ-RhoGEF Galphai1 to cell membrane by BRET-based G protein dissociation assay relative to control; format: functional
[4] = test system: Rattus norvegicus; experiment: Hypotensive effect in Sprague-Dawley rat assessed as decrease in blood pressure at 19.6 to 65 nmol/kg, iv relative to control; format: functional; settings: dose 19.6-65 nmol/kg
[5] = test system: Rattus norvegicus; experiment: Cardioprotective activity in Sprague-Dawley rat assessed as effect on cardiac output in sprague-dawley rat at 2 micromol/kg, sc after 3 hrs by echocardiography relative to control; format: functional; settings: dose 2 µmol/kg
[6] = test system: Rattus norvegicus; experiment: Cardioprotective activity in Sprague-Dawley rat assessed as effect on left ventricular fractional shortening at 2 micromol/kg, sc after 6 hrs by echocardiography relative to control; format: functional; settings: dose 2 µmol/kg
[7] = Stability in Sprague-Dawley rat plasma assessed as half life measured upto 24 hrs by UPLC-MS analysis; format: ADME, cell-free
[8] = test system: Rattus norvegicus; experiment: Cardioprotective activity in Sprague-Dawley rat assessed as effect on cardiac output in sprague-dawley rat at 2 micromol/kg, sc after 6 hrs by echocardiography relative to control; format: functional; settings: dose 2 µmol/kg
[9] = Stability in Sprague-Dawley rat plasma at 3 mg/kg, iv upto 2 hrs by LC/MS-MS analysis; format: ADME, organism-based; settings: in vivo
[10] = test system: Rattus norvegicus; experiment: Cardioprotective activity in Sprague-Dawley rat assessed as effect on left ventricular fractional shortening at 0.2 micromol/kg, sc after 3 hrs by echocardiography; format: functional, organism-based; settings: dose 0.2 µmol/kg
[11] = AUC in Sprague-Dawley rat plasma at 3 mg/kg, iv by LC/MS-MS analysis; format: ADME, organism-based; design: dose 3 mg/kg; settings: in vivo
[12] = test system: Rattus norvegicus; experiment: Cardioprotective activity in Sprague-Dawley rat assessed as effect on left ventricular fractional shortening at 2 micromol/kg, sc after 3 hrs by echocardiography relative to control; format: functional; settings: dose 2 µmol/kg
[13] = test system: Rattus norvegicus; experiment: Cardioprotective activity in Sprague-Dawley rat assessed as effect on cardiac output in sprague-dawley rat at 0.2 micromol/kg, sc after 3 hrs by echocardiography; format: functional, organism-based; settings: dose 0.2 µmol/kg
[14] = target: T2, Apelin receptor (Homo sapiens, UniProt P35414); experiment: Displacement of [125I]-[Nle75,Tyr77][Pyr1]-Ape13 from YFP-tagged human APJ expressed in HEK293 cell membranes assessed as inhibition constant incubated for 1 hr by scintillation counting method
T2 sequence (P35414 whole entry): T1 sequence (whole entry)

[15] = target: T2, Apelin receptor; experiment: Agonist activity at human APJ expressed in HEK293 cell membrane assessed as recruitment of PDZ-RhoGEF Galpha12 to cell membrane by BRET-based G protein dissociation assay; format: functional

CCCC[C@H](NC(=O)[C@@H]1CCCN1C(=O)CNC(=O)[C@H](CCCCN)NC(=O)[C@@H]1CCNC/C=C/C[C@H](NC(=O)[C@H](CCCNC(=N)N)NC(=O)[C@@H]2CCC(=O)N2)C(=O)N[C@@H](CCCNC(=N)N)C(=O)N[C@@H](CC(C)C)C(=O)N[C@@H](CO)C(=O)N1)C(=O)N1CCC[C@H]1C(=O)N[C@@H](Cc1ccccc1)C(=O)O
Emax [1]: 100%
Emax [2]: 86%
Emax ([3]; filed as agonist): 95%

CCCC[C@H](NC(=O)[C@@H]1CCCN1C(=O)CNC(=O)[C@H](CCCCN)NC(=O)[C@@H]1CCN(C)C/C=C/C[C@H](NC(=O)[C@H](CCCNC(=N)N)NC(=O)[C@@H]2CCC(=O)N2)C(=O)N[C@@H](CCCNC(=N)N)C(=O)N[C@@H](CC(C)C)C(=O)N[C@@H](CO)C(=O)N1)C(=O)N1CCC[C@H]1C(=O)N[C@@H](Cc1ccccc1)C(=O)O
Emax [1]: 102%
Emax [2]: 90%
Emax ([3]; filed as agonist): 97%

CCCC[C@H](NC(=O)[C@@H]1CCCN1C(=O)CNC(=O)[C@H](CCCCN)NC(=O)[C@@H]1Cc2cncn2C/C=C/C[C@H](NC(=O)[C@H](CCCNC(=N)N)NC(=O)[C@@H]2CCC(=O)N2)C(=O)N[C@@H](CCCNC(=N)N)C(=O)N[C@@H](CC(C)C)C(=O)N[C@@H](CO)C(=O)N1)C(=O)N1CCC[C@H]1C(=O)N[C@@H](Cc1ccccc1)C(=O)O
Emax [1]: 99%
Emax [2]: 115%
Emax ([3]; filed as agonist): 98%
Activity [4]: -36 mmHg

CC(C)C[C@@H]1NC(=O)[C@H](CCCNC(=N)N)NC(=O)[C@@H](N)C/C=C\C[C@@H](C(=O)N[C@@H](CCCCN)C(=O)NCC(=O)N2CCC[C@H]2C(=O)N[C@H](Cc2ccc(O)cc2)C(=O)O)NC(=O)[C@H](CO)NC1=O
Emax [1]: 100%
Emax [2]: 54%
Emax ([3]; filed as agonist): 45%

CC(C)C[C@@H]1NC(=O)[C@H](CCCNC(=N)N)NC(=O)[C@@H](N)C/C=C\C[C@@H](C(=O)N[C@@H](CCCCN)C(=O)NCC(=O)N2CCC[C@H]2C(=O)N[C@H](Cc2ccc3ccccc3c2)C(=O)O)NC(=O)[C@H](CO)NC1=O
Activity [5]: 22%
Emax [1]: 105%
Activity [6]: 17%
half-life [7]: > 1440 min
Activity [8]: 16%
Stability [9]: Stable
Activity [10]: Active
AUC [11]: 8.8 mg·min/mL
Activity [12]: 22%
Emax [2]: 55%
Activity [13]: Active
Emax ([3]; filed as agonist): 40%
Activity [4]: inactive

CCCC[C@H](NC(=O)[C@@H]1CCCN1C(=O)CNC(=O)[C@H](CCCCN)NC(=O)[C@@H]1CCN(S(=O)(=O)c2ccccc2[N+](=O)[O-])C/C=C/C[C@H](NC(=O)[C@H](CCCNC(=N)N)NC(=O)[C@@H]2CCC(=O)N2)C(=O)N[C@@H](CCCNC(=N)N)C(=O)N[C@@H](CC(C)C)C(=O)N[C@@H](CO)C(=O)N1)C(=O)N1CCC[C@H]1C(=O)N[C@@H](Cc1ccccc1)C(=O)O
Emax [1]: 102%
Emax [2]: 98%
Emax ([3]; filed as agonist): 92%

CCCC[C@H](NC(=O)[C@@H]1CCCN1C(=O)CNC(=O)[C@@H]1C/C=C\C[C@H](N)C(=O)N[C@@H](CCCNC(=N)N)C(=O)N[C@@H](CC(C)C)C(=O)N[C@@H](CO)C(=O)N1)C(=O)O (H-[AllylGly]RLS[AllylGly]GP[Nle]-OH; staple (Z) 1-5)
pKi [14]: < 5.00

CC(C)C[C@@H]1NC(=O)[C@H](CCCNC(=N)N)NC(=O)[C@@H](N)C/C=C\C[C@@H](C(=O)N[C@@H](CCCCN)C(=O)NCC(=O)N2CCC[C@H]2C(=O)N[C@H](Cc2cccc3ccccc23)C(=O)O)NC(=O)[C@H](CO)NC1=O
Activity [5]: 22%
Emax [1]: 103%
Stability [9]: Stable
Activity [10]: Active
AUC [11]: 1.33 mg·min/mL
Activity [12]: 22%
Emax [2]: 70%
Emax [3]: 3%
Activity [4]: -24 mmHg

CCCC[C@H](NC(=O)[C@@H]1CCCN1C(=O)CCCCNC(=O)[C@@H]1C/C=C\C[C@H](N)C(=O)N[C@@H](CCCNC(=N)N)C(=O)N[C@@H](CC(C)C)C(=O)N[C@@H](CO)C(=O)N1)C(=O)O (H-[AllylGly]RLS[AllylGly][Ava]P[Nle]-OH; staple (Z) 1-5)
pKi [14]: < 5.00

CC(C)C[C@@H]1NC(=O)[C@H](CCCNC(=N)N)NC(=O)[C@@H](N)C/C=C\C[C@@H](C(=O)N[C@@H](CCCCN)C(=O)NCC(=O)N2CCC[C@H]2C(=O)N[C@@H](C)C(=O)O)NC(=O)[C@H](CO)NC1=O (H-[AllylGly]RLS[AllylGly]KGPA-OH; staple (Z) 1-5)
pKi [14]: < 5.00

CCCC[C@H](NC(=O)[C@@H]1CCCN1C(=O)CNC(=O)[C@H](CCCCN)NC(=O)[C@@H]1C/C=C\C[C@H](N)C(=O)N[C@@H](CCCNC(=N)N)C(=O)N[C@@H](CC(C)C)C(=O)N[C@@H](CO)C(=O)N1)C(=O)O
Emax [1]: 99%
Emax [2]: 69%
Emax ([3]; filed as agonist): 59%
Activity [4]: -13 mmHg

CC(C)C[C@@H]1NC(=O)[C@H](CCCNC(=N)N)NC(=O)[C@@H](N)C/C=C\C[C@@H](C(=O)N[C@@H](CCCCN)C(=O)NCC(=O)N2CCC[C@H]2C(=O)N[C@H](Cc2ccc(OCc3ccccc3)cc2)C(=O)O)NC(=O)[C@H](CO)NC1=O
Emax [1]: 104%
Emax [2]: 78%
Emax ([3]; filed as agonist): 48%

CCCC[C@H](NC(=O)[C@@H]1CCCN1C(=O)CNC(=O)[C@H](CCCCN)NC(=O)[C@@H]1C/C=C\C[C@H](NC(=O)[C@H](CCCNC(=N)N)NC(=O)[C@@H]2CCC(=O)N2)C(=O)N[C@@H](CCCNC(=N)N)C(=O)N[C@@H](CC(C)C)C(=O)N[C@@H](CO)C(=O)N1)C(=O)N1CCC[C@H]1C(=O)N[C@@H](Cc1ccccc1)C(=O)O
Emax [1]: 101%
Emax [2]: 98%
Emax ([3]; filed as agonist): 98%

CCCC[C@H](NC(=O)[C@@H]1CCCN1C(=O)CNC(=O)[C@H](CCCCN)NC(=O)[C@@H]1CCN(S(=O)(=O)c2ccccc2[N+](=O)[O-])C/C=C/C[C@H](N)C(=O)N[C@@H](CCCNC(=N)N)C(=O)N[C@@H](CC(C)C)C(=O)N[C@@H](CO)C(=O)N1)C(=O)N1CCC[C@H]1C(=O)N[C@@H](Cc1ccccc1)C(=O)O
Emax [1]: 106%
Emax [2]: 82%
Emax ([3]; filed as agonist): 93%

CCCC[C@H](NC(=O)[C@@H]1CCCN1C(=O)CNC(=O)[C@H](CCCCN)NC(=O)[C@@H]1CC(=O)NCCCC[C@H](NC(=O)[C@H](CCCNC(=N)N)NC(=O)[C@@H]2CCC(=O)N2)C(=O)N[C@@H](CCCNC(=N)N)C(=O)N[C@@H](CC(C)C)C(=O)N[C@@H](CO)C(=O)N1)C(=O)N1CCC[C@H]1C(=O)N[C@@H](Cc1ccccc1)C(=O)O (HELM PEPTIDE1{[Glp].R.K.R.L.S.D.K.G.P.[Nle].P.F}$PEPTIDE1,PEPTIDE1,3:R3-7:R3$$$V2.0)
pKi [14]: 7.41

CCCC[C@H](NC(=O)[C@@H]1CCCN1C(=O)CNC(=O)[C@H](CCCCN)NC(=O)[C@@H]1C/C=C\C[C@H](N)C(=O)N[C@@H](CCCNC(=N)N)C(=O)N[C@@H](CC(C)C)C(=O)N[C@@H](CO)C(=O)N1)C(=O)N1CCC[C@H]1C(=O)N[C@@H](Cc1ccccc1)C(=O)O
Emax [1]: 100%
Emax [2]: 98%
Emax ([3]; filed as agonist): 98%
Activity [4]: -27 mmHg

CCCC[C@H](NC(=O)[C@@H]1CCCN1C(=O)CNC(=O)[C@H](CCCCN)NC(=O)[C@@H]1C/C=C\C[C@H](NC(=N)N)C(=O)N[C@@H](CCCNC(=N)N)C(=O)N[C@@H](CC(C)C)C(=O)N[C@@H](CO)C(=O)N1)C(=O)N1CCC[C@H]1C(=O)N[C@@H](Cc1ccccc1)C(=O)O
Emax [1]: 103%
Emax [2]: 92%
Emax ([3]; filed as agonist): 105%

CC(C)C[C@@H]1NC(=O)[C@H](CCCNC(=N)N)NC(=O)[C@@H](N)C/C=C\C[C@@H](C(=O)N[C@@H](CCCCN)C(=O)O)NC(=O)[C@H](CO)NC1=O (H-[AllylGly]RLS[AllylGly]K-OH; staple (Z) 1-5)
pKi [14]: < 5.00

CCCC[C@H](NC(=O)[C@@H]1CCCN1C(=O)CNC(=O)[C@H](CCCCN)NC(=O)[C@@H]1CCCC[C@H](NC(=O)[C@H](CCCNC(=N)N)NC(=O)[C@@H]2CCC(=O)N2)C(=O)N[C@@H](CCCNC(=N)N)C(=O)N[C@@H](CC(C)C)C(=O)N[C@@H](CO)C(=O)N1)C(=O)N1CCC[C@H]1C(=O)N[C@@H](Cc1ccccc1)C(=O)O
Emax [1]: 102%
pEC50 [15]: 7.20
Emax [2]: 75%
Emax ([3]; filed as agonist): 100%

C=CC[C@H](NC(=O)[C@H](CO)NC(=O)[C@H](CC(C)C)NC(=O)[C@H](CCCNC(=N)N)NC(=O)[C@@H](N)CC=C)C(=O)N[C@@H](CCCCN)C(=O)NCC(=O)N1CCC[C@H]1C(=O)N[C@@H](CCCC)C(=O)N1CCC[C@H]1C(=O)N[C@@H](Cc1ccccc1)C(=O)O
half-life [7]: 6 min
pKi [14]: 6.77

Source: ChEMBL document CHEMBL5038644 (J Med Chem, 2022)
